Experimental data reported in patent publication US4714706A, “Pyridyloxy derivatives and their use as insecticides” (Sumitomo Chemical Company, Limited, priority 1985, dated 1987).
Like-named read-outs stand apart in the source and are kept apart here.

How the values were obtained:
[1] = system: common mosquito (Culex pipiens pallens); assay: Rate of emergence of last instar larvae of common mosquito reared 7 days in treated water (Test Example 1); format: in vivo; details: 3.5 ppm
Protocol: An emulsifiable concentrate prepared according to Formulation Example 1 was diluted with water to make a 400 fold dilution. The dilution (0.7 ml) was added to 100 ml of distilled water. Last instar larvae of common mosquito (Culex pipiens pallens) were released therein and reared for 7 days until their emergence. The rate of emergence was observed according to the following criteria: […]

[2] = system: housefly (Musca domestica); assay: Emergence inhibition of housefly larvae reared in treated artificial culture (Test Example 2); format: in vivo; details: read-out: Emergence inhibition
Protocol: Powdered animal feed (2 g) was thoroughly mixed with bran (14 g). An emulsifiable concentrate prepared according to Formulation Example 1 was diluted with water to a designed concentration and the dilution was added to the above mixture. The resultant mixture was stirred well to make an artificial culture. Thirty larvae of housefly (Musca domestica) were reared therein until their pupation. The obtained pupae were placed into a plastic cup, and the rate of emergence was determined. According to the following equation, the emergence inhibition (%) was calculated: [formula]

[3] = last instar larvae of Culex pipiens pallens, reared 7 days
[4] = 0.3 ppm, Musca domestica larvae

SMILES	Rate of emergence [1, 3]	inhibition at 0.3 ppm [2, 4]	inhibition at 1 ppm ([2]; 1 ppm, Musca domestica larvae)	inhibition at 3 ppm ([2]; 3 ppm, Musca domestica larvae)	also measured
CC(C)CCCc1ccc(OCCOc2ccccn2)cc1 [compound 34]	A (less than 10%)	41%	67%	100%	–
CC(C)CCOc1ccc(OCCOc2nccs2)cc1Cl [compound 30]	A (less than 10%)	–	–	–	–
CC(C)COc1ccc(OCCOc2ccccn2)cc1 [Compound No. 2]	A (less than 10%)	3%	42%	100%	–
CC(C)CCOc1ccc(OC(C)COc2ncccn2)cc1 (stereo not drawn) [compound 17]	A (less than 10%)	–	–	–	–
CCCCCOc1ccc(OCCOc2ccccn2)cc1 [compound 11]	A (less than 10%)	–	–	–	–
Cc1cc(OCCOc2ccccn2)cc(C)c1OCCC(C)C [compound 33]	A (less than 10%)	–	–	–	–
CC(C)CCOc1ccc(OCCOc2ncccn2)cc1 [compound 20]	A (less than 10%)	–	–	–	–
CCOc1ccc(OCCOc2ccccn2)cc1 [compound 8]	A (less than 10%)	–	–	–	–
CCC(C)COc1ccc(OCCOc2ccccn2)cc1 (stereo not drawn) [compound 12]	A (less than 10%)	0%	20%	83%	–
CC(C)(C)CCOc1ccc(OCCOc2ccccn2)cc1 [compound 13]	A (less than 10%)	–	–	–	–
COC(C)(C)COc1ccc(OCCOc2ccccn2)cc1 [compound 3]	A (less than 10%)	–	–	–	–
CC(C)COCc1ccc(OCCOc2ccccn2)cc1 [compound 28]	A (less than 10%)	93%	100%	100%	–
C=C(C)COc1ccc(OCCOc2ccccn2)cc1 [compound 5]	A (less than 10%)	–	–	–	–
CC(C)CCOc1ccc(OCCOc2ccccn2)cc1 [Compound No. 7]	A (less than 10%)	31%	87%	100%	–
CC(C)(C)COc1ccc(OCCOc2ccccn2)cc1 [compound 14]	A (less than 10%)	–	–	–	–
COC(C)(C)CCCC(C)C/C=C/C(C)=C/C(=O)OC(C)C (stereo not drawn) [(a), methoprene, reference compound]	–	–	–	–	Rate of emergence ([1]; 168 h): A (less than 10%); inhibition at 0.3 ppm ([2]; Musca domestica): 2%; inhibition at 1 ppm ([2]; Musca domestica): 13%; inhibition at 3 ppm ([2]; Musca domestica): 60%
CC(C)COc1ccc(OCCOc2nccs2)cc1 [compound 26]	A (less than 10%)	11%	61%	100%	–
CC(C)CCOc1ccc(OCC(C)Oc2ccccn2)cc1 (stereo not drawn) [compound 15]	A (less than 10%)	0%	43%	93%	–

SMILES	Rate of emergence [1, 3]	inhibition at 0.3 ppm [2, 4]	inhibition at 1 ppm ([2]; 1 ppm, Musca domestica larvae)	inhibition at 3 ppm ([2]; 3 ppm, Musca domestica larvae)	also measured
CC(C)CCOc1ccc(OCCOc2nccs2)cc1 [compound 16]	A (less than 10%)	45%	96%	100%	–
COC(C)(C)COc1ccc(OCCOc2nccs2)cc1 [compound 27]	A (less than 10%)	–	–	–	–
C=CCOc1ccc(OCCOc2ccccn2)cc1 [compound 6]	A (less than 10%)	–	–	–	–
CC(C)CCOc1ccc(OCCOc2ccccn2)cc1Cl [compound 32]	A (less than 10%)	3%	56%	94%	–
CC(C)CCOc1ccc(OCCSc2ncccn2)cc1 [compound 23]	A (less than 10%)	–	–	–	–
CCCOc1ccc(OCCOc2ccccn2)cc1 [compound 10]	A (less than 10%)	–	–	–	–
CC(C)COCc1ccc(OCCOc2nccs2)cc1 [Compound No. 29]	A (less than 10%)	100%	100%	100%	–
CC(C)CCOc1ccc(OCCSC2=NCCS2)cc1 [compound 21]	A (less than 10%)	–	–	–	–
CCCCOc1ccc(OCCOc2ccccn2)cc1 [Compound No. 9]	A (less than 10%)	–	–	–	–
COC(C)(C)CCCC(C)CCCCOc1ccccn1 (stereo not drawn) [compound 1]	A (less than 10%)	–	–	–	–
CC(C)CCOc1ccc(OCC(C)Oc2nccs2)cc1 (stereo not drawn) [compound 25]	A (less than 10%)	8%	58%	100%	–
CC(C)CCOc1ccc(OCCSc2ccccn2)cc1 [Compound No. 22]	A (less than 10%)	–	–	–	–
CC(C)CCCc1ccc(OCCOc2nccs2)cc1 [compound 35]	A (less than 10%)	51%	100%	100%	–
CC(C)CCOc1ccc(OC(C)COc2nccs2)cc1 (stereo not drawn) [compound 24]	A (less than 10%)	–	–	–	–
Cc1cc(OCCOc2nccs2)cc(C)c1OCCC(C)C [compound 31]	A (less than 10%)	–	–	–	–
CC(C)CCCC(C)CCCCOc1ncccn1 (stereo not drawn) [compound 4]	A (less than 10%)	–	–	–	–
CC(C)CCOc1ccc(OCC(C)Oc2ncccn2)cc1 (stereo not drawn) [compound 19]	A (less than 10%)	–	–	–	–
CC(C)CCOc1ccc(OC(C)COc2ccccn2)cc1 (stereo not drawn) [compound 18]	A (less than 10%)	–	–	–	–
